#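 Tested at 5 concentrations; 48 h exposure; 96-well plates; endpoints linearly interpolated, else capped at highest concentration. GI50 = concentration required for 50% inhibition of growth. TGI: total growth inhibition.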
# How the values were obtained:
# Assay in all cases: DTP human tumour cell line panel, 48 h
# RPMI-8226 leukemia = test system: RPMI-8226 leukemia
# SK-MEL-5 melanoma = test system: SK-MEL-5 melanoma
# RXF 393 renal = test system: RXF 393 renal
# HCT-15 colon = test system: HCT-15 colon
# SF-539 CNS = test system: SF-539 CNS
# KM12 colon = test system: KM12 colon
# UO-31 renal = test system: UO-31 renal
# OVCAR-4 ovarian = test system: OVCAR-4 ovarian
# NCI-H23 lung = test system: NCI-H23 lung
# UACC-62 melanoma = test system: UACC-62 melanoma
# SW-620 colon = test system: SW-620 colon
# NCI/ADR-RES ovarian = test system: NCI/ADR-RES ovarian
# BT-549 breast = test system: BT-549 breast
# HT29 colon = test system: HT29 colon
# MDA-MB-231 breast = test system: MDA-MB-231 breast
# CAKI-1 renal = test system: CAKI-1 renal
# SK-OV-3 ovarian = test system: SK-OV-3 ovarian
# MCF7 breast = test system: MCF7 breast
# HCC-2998 colon = test system: HCC-2998 colon
# A549 NSCLC = test system: A549 NSCLC
# SF-268 CNS = test system: SF-268 CNS
# T-47D breast = test system: T-47D breast
# MALME-3M melanoma = test system: MALME-3M melanoma
# 786-0 renal = test system: 786-0 renal
# EKVX NSCLC = test system: EKVX NSCLC
# U251 CNS = test system: U251 CNS
# OVCAR-3 ovarian = test system: OVCAR-3 ovarian
# SNB-19 CNS = test system: SNB-19 CNS
# HCT-116 colon = test system: HCT-116 colon
# HS 578T breast = test system: HS 578T breast
# TK-10 renal = test system: TK-10 renal
# ACHN renal = test system: ACHN renal
# COLO 205 colon = test system: COLO 205 colon
# HOP-62 NSCLC = test system: HOP-62 NSCLC
# K-562 leukemia = test system: K-562 leukemia
# MDA-MB-435 = test system: MDA-MB-435
# SNB-75 CNS = test system: SNB-75 CNS
# NCI-H522 lung = test system: NCI-H522 lung
# NCI-H460 lung = test system: NCI-H460 lung
# DU-145 prostate = test system: DU-145 prostate
# OVCAR-8 ovarian = test system: OVCAR-8 ovarian
# UACC-257 melanoma = test system: UACC-257 melanoma
# HOP-92 NSCLC = test system: HOP-92 NSCLC
# SF-295 CNS = test system: SF-295 CNS
# PC-3 prostate = test system: PC-3 prostate
# OVCAR-5 ovarian = test system: OVCAR-5 ovarian
# NCI-H226 lung = test system: NCI-H226 lung
# SK-MEL-2 melanoma = test system: SK-MEL-2 melanoma
# SK-MEL-28 melanoma = test system: SK-MEL-28 melanoma
# SN12C renal = test system: SN12C renal
# LOX IMVI melanoma = test system: LOX IMVI melanoma
# HL-60(TB) leukemia = test system: HL-60(TB) leukemia
# MOLT-4 leukemia = test system: MOLT-4 leukemia
# IGROV1 ovarian = test system: IGROV1 ovarian
# SR leukemia = test system: SR leukemia
smiles,measurement,setting,value
Nc1ccn(C2OC(CO)C3[O][Sn]([c]4ccccc4)([c]4ccccc4)[O]C32)c(=O)n1 (stereo unspecified),GI50,RPMI-8226 leukemia,13.7 µM
same,TGI,RPMI-8226 leukemia,49.1 µM
same,GI50,SK-MEL-5 melanoma,3.75 µM
same,GI50,RXF 393 renal,1.73 µM
same,TGI,RXF 393 renal,22.3 µM
same,GI50,HCT-15 colon,15 µM
same,GI50,SF-539 CNS,2.17 µM
same,TGI,SF-539 CNS,20.5 µM
same,GI50,KM12 colon,35.5 µM
same,GI50,UO-31 renal,0.221 µM
same,GI50,OVCAR-4 ovarian,43.1 µM
same,GI50,NCI-H23 lung,0.39 µM
same,GI50,UACC-62 melanoma,6.36 µM
same,GI50,SW-620 colon,0.803 µM
same,TGI,SW-620 colon,61.5 µM
same,GI50,NCI/ADR-RES ovarian,4.73 µM
same,GI50,BT-549 breast,30.7 µM
same,GI50,HT29 colon,1.45 µM
same,GI50,MDA-MB-231 breast,24.1 µM
same,TGI,MDA-MB-231 breast,82.6 µM
same,GI50,CAKI-1 renal,4.66 µM
same,GI50,SK-OV-3 ovarian,26.6 µM
same,GI50,MCF7 breast,0.0984 µM
same,GI50,HCC-2998 colon,0.0629 µM
same,TGI,HCC-2998 colon,17.9 µM
same,GI50,A549 NSCLC,0.0344 µM
same,GI50,SF-268 CNS,1.79 µM
same,GI50,T-47D breast,15.3 µM
same,GI50,MALME-3M melanoma,17.9 µM
same,GI50,786-0 renal,0.656 µM
same,GI50,EKVX NSCLC,34.2 µM
same,GI50,U251 CNS,0.617 µM
same,TGI,U251 CNS,22.8 µM
same,GI50,OVCAR-3 ovarian,34.8 µM
same,GI50,SNB-19 CNS,3.34 µM
same,GI50,HCT-116 colon,0.024 µM
same,GI50,HS 578T breast,29.5 µM
same,GI50,TK-10 renal,32.3 µM
same,GI50,ACHN renal,0.361 µM
same,GI50,COLO 205 colon,0.141 µM
same,GI50,HOP-62 NSCLC,1.51 µM
same,GI50,K-562 leukemia,53.2 µM
same,GI50,MDA-MB-435,6.25 µM
same,GI50,SNB-75 CNS,14 µM
same,TGI,SNB-75 CNS,50.1 µM
same,GI50,NCI-H522 lung,10.8 µM
same,TGI,NCI-H522 lung,29 µM
same,GI50,NCI-H460 lung,0.0187 µM
same,GI50,DU-145 prostate,0.149 µM
same,TGI,DU-145 prostate,19.6 µM
COc1cccc2c1-c1ccccc1C2=O,GI50,RPMI-8226 leukemia,3.7 µM
same,TGI,RPMI-8226 leukemia,> 100 µM
same,GI50,SK-MEL-5 melanoma,2.31 µM
same,TGI,SK-MEL-5 melanoma,13.5 µM
same,GI50,RXF 393 renal,0.329 µM
same,TGI,RXF 393 renal,49.2 µM
same,GI50,HCT-15 colon,2.71 µM
same,TGI,HCT-15 colon,> 100 µM
same,GI50,OVCAR-8 ovarian,3.33 µM
same,TGI,OVCAR-8 ovarian,> 100 µM
same,GI50,UACC-257 melanoma,> 100 µM
same,TGI,UACC-257 melanoma,> 100 µM
same,GI50,SF-539 CNS,1.31 µM
same,TGI,SF-539 CNS,5.76 µM
same,GI50,KM12 colon,3.42 µM
same,TGI,KM12 colon,> 100 µM
same,GI50,HOP-92 NSCLC,4.6 µM
same,TGI,HOP-92 NSCLC,85.2 µM
same,GI50,UO-31 renal,4.46 µM
same,TGI,UO-31 renal,> 100 µM
same,GI50,OVCAR-4 ovarian,2.69 µM
same,TGI,OVCAR-4 ovarian,> 100 µM
same,GI50,NCI-H23 lung,4.2 µM
same,TGI,NCI-H23 lung,> 100 µM
same,GI50,UACC-62 melanoma,0.467 µM
same,TGI,UACC-62 melanoma,> 100 µM
same,GI50,SF-295 CNS,0.352 µM
same,TGI,SF-295 CNS,> 100 µM
same,GI50,SW-620 colon,2.09 µM
same,TGI,SW-620 colon,> 100 µM
same,GI50,BT-549 breast,1.17 µM
same,TGI,BT-549 breast,> 100 µM
same,GI50,HT29 colon,3.03 µM
same,TGI,HT29 colon,12.5 µM
same,GI50,MDA-MB-231 breast,3.25 µM
same,TGI,MDA-MB-231 breast,48.3 µM
same,GI50,CAKI-1 renal,0.543 µM
same,TGI,CAKI-1 renal,> 100 µM
same,GI50,SK-OV-3 ovarian,1.03 µM
same,TGI,SK-OV-3 ovarian,7.49 µM
same,GI50,MCF7 breast,1.14 µM
same,TGI,MCF7 breast,> 100 µM
same,GI50,HCC-2998 colon,3.35 µM
same,TGI,HCC-2998 colon,47.1 µM
same,GI50,PC-3 prostate,2.22 µM
same,TGI,PC-3 prostate,> 100 µM
same,GI50,OVCAR-5 ovarian,5.32 µM
same,TGI,OVCAR-5 ovarian,> 100 µM
same,GI50,NCI-H226 lung,1.19 µM
same,TGI,NCI-H226 lung,> 100 µM
same,GI50,A549 NSCLC,2.65 µM
same,TGI,A549 NSCLC,> 100 µM
same,GI50,SF-268 CNS,3.17 µM
same,TGI,SF-268 CNS,> 100 µM
same,GI50,T-47D breast,6.7 µM
same,TGI,T-47D breast,> 100 µM
same,GI50,MALME-3M melanoma,6.54 µM
same,TGI,MALME-3M melanoma,> 100 µM
same,GI50,SK-MEL-2 melanoma,2.49 µM
same,TGI,SK-MEL-2 melanoma,> 100 µM
same,GI50,786-0 renal,3.15 µM
same,TGI,786-0 renal,> 100 µM
same,GI50,EKVX NSCLC,9.49 µM
same,TGI,EKVX NSCLC,> 100 µM
same,GI50,U251 CNS,2.9 µM
same,TGI,U251 CNS,> 100 µM
same,GI50,SNB-19 CNS,2.52 µM
same,TGI,SNB-19 CNS,> 100 µM
same,GI50,HCT-116 colon,3.14 µM
same,TGI,HCT-116 colon,17.4 µM
same,GI50,HS 578T breast,0.815 µM
same,TGI,HS 578T breast,> 100 µM
same,GI50,TK-10 renal,9.8 µM
same,TGI,TK-10 renal,> 100 µM
same,GI50,ACHN renal,0.783 µM
same,TGI,ACHN renal,> 100 µM
same,GI50,COLO 205 colon,1.91 µM
same,TGI,COLO 205 colon,4.62 µM
same,GI50,SK-MEL-28 melanoma,3.85 µM
same,TGI,SK-MEL-28 melanoma,> 100 µM
same,GI50,HOP-62 NSCLC,1.65 µM
same,TGI,HOP-62 NSCLC,> 100 µM
same,GI50,SN12C renal,4.85 µM
same,TGI,SN12C renal,> 100 µM
same,GI50,LOX IMVI melanoma,2.24 µM
same,TGI,LOX IMVI melanoma,> 100 µM
same,GI50,K-562 leukemia,0.801 µM
same,TGI,K-562 leukemia,> 100 µM
same,GI50,MDA-MB-435,0.225 µM
same,TGI,MDA-MB-435,0.79 µM
same,GI50,HL-60(TB) leukemia,2.19 µM
same,TGI,HL-60(TB) leukemia,6.37 µM
same,GI50,MOLT-4 leukemia,4.25 µM
same,TGI,MOLT-4 leukemia,> 100 µM
same,GI50,IGROV1 ovarian,1.46 µM
same,TGI,IGROV1 ovarian,> 100 µM
same,GI50,SNB-75 CNS,0.431 µM
same,TGI,SNB-75 CNS,> 100 µM
same,GI50,NCI-H522 lung,0.276 µM
same,TGI,NCI-H522 lung,4.33 µM
same,GI50,NCI-H460 lung,0.628 µM
same,TGI,NCI-H460 lung,11.5 µM
same,GI50,DU-145 prostate,2.9 µM
same,TGI,DU-145 prostate,> 100 µM
same,GI50,SR leukemia,3.66 µM
same,TGI,SR leukemia,> 100 µM
